From ChEMBL document CHEMBL4420076, “Amylin and calcitonin receptor agonist” (2017)
≈ marks a conversion by molar mass, not a printed value. Numbered stars: 1 amine (or outer) side, 2 acyl side, 3 side chain; on linkers, the order of the positions; unused ones are H or OH. Peptide text beside a SMILES is read from it. * marks the point of attachment. C20 diacid = O=C(O)CCCCCCCCCCCCCCCCCCC(=O)*; C18 diacid = O=C(O)CCCCCCCCCCCCCCCCC(=O)*; γGlu = O=C(O)[C@H](CCC(=O)[*:2])N[*:1]; C12 diacid = O=C(O)CCCCCCCCCCC(=O)*

Key:
Rattus norvegicus [1] = assay: Reduction in food intake in Sprague-Dawley rat at 3 nmol/kg measured 0 to 24 hrs post dose relative to control; format: functional; design: scale not given: the % may be the effect or the level left
[2] = molecular target: T1, Amylin receptor AMY3; CALCR/RAMP3 (Homo sapiens, UniProt O60896+P30988); assay: Agonist activity at human amylin receptor expressed in BHK570 cells co-expressing RAMP3 assessed as increase in intracellular cAMP concentration incubated for 3 hrs in absence of albumin by CRE luciferase reporter gene assay; format: functional, cell-based
T1 sequence (P30988 whole entry): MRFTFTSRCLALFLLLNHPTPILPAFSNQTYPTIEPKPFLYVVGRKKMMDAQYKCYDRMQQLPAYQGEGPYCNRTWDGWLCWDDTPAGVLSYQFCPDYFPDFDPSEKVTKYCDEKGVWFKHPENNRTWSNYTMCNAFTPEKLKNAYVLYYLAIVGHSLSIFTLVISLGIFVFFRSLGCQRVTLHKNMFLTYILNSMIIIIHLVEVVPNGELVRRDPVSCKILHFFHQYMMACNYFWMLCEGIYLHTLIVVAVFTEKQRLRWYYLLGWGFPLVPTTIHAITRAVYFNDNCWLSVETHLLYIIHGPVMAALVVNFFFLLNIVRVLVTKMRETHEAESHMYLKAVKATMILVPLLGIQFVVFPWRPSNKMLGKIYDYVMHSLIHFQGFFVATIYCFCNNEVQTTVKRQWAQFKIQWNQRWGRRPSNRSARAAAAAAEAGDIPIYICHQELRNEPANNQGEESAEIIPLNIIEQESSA
T1 sequence (O60896 whole entry): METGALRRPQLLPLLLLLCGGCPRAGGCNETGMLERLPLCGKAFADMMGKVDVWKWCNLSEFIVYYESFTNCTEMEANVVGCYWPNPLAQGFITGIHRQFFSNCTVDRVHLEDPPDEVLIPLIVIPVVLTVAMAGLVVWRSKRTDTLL

Calcitonin receptor [3] = molecular target: T2, Calcitonin receptor (Homo sapiens, UniProt P30988); assay: Agonist activity at human calcitonin receptor expressed in BHK570 cells assessed as increase in intracellular cAMP concentration incubated for 3 hrs in absence of albumin by CRE luciferase reporter gene assay; format: functional, cell-based
T2 sequence (P30988 whole entry): T1 sequence (P30988 whole entry)

Rattus norvegicus [4] = assay: Reduction in food intake in Sprague-Dawley rat at 3 nmol/kg measured 24 to 48 hrs post dose relative to control; format: functional; design: scale not given: the % may be the effect or the level left
[5] = molecular target: T1, Amylin receptor AMY3; CALCR/RAMP3; assay: Displacement of [125I]-labeled rat amylin from human amylin receptor expressed in BHK tkts13 whole cells co-expressing RAMP3 incubated for 60 mins by scintillation proximity assay; format: cell-based
[6] = Solubility in 100 mM bistrispropane buffer at pH 6.5 incubated for 18 hrs by UPLC analysis; format: physicochemical
[7] = Solubility in 100 mM glycylglycine buffer at pH 4.0 incubated for 18 hrs by UPLC analysis; format: physicochemical
[8] = Solubility in 100 mM bistrispropane buffer at pH 8.0 incubated for 18 hrs by UPLC analysis; format: physicochemical
[9] = Solubility in 100 mM bistrispropane buffer at pH 7.0 incubated for 18 hrs by UPLC analysis; format: physicochemical
Calcitonin receptor [10] = molecular target: T2, Calcitonin receptor; assay: Agonist activity at human calcitonin receptor expressed in BHK570 cells assessed as increase in intracellular cAMP concentration incubated for 3 hrs in presence of 10% FBS by CRE luciferase reporter gene assay; format: functional, cell-based
[11] = Solubility in 100 mM bistrispropane buffer at pH 7.5 incubated for 18 hrs by UPLC analysis; format: physicochemical
[12] = Solubility in 100 mM glycylglycine buffer at pH 5.0 incubated for 18 hrs by UPLC analysis; format: physicochemical
[13] = Solubility in 100 mM bistrispropane buffer at pH 6.0 incubated for 18 hrs by UPLC analysis; format: physicochemical
[14] = Solubility in 100 mM glycylglycine buffer at pH 3.0 incubated for 18 hrs by UPLC analysis; format: physicochemical
[15] = molecular target: T1, Amylin receptor AMY3; CALCR/RAMP3; assay: Agonist activity at human amylin receptor expressed in BHK570 cells co-expressing RAMP3 assessed as increase in intracellular cAMP concentration incubated for 3 hrs in presence of 10% FBS by CRE luciferase reporter gene assay; format: functional, cell-based

Compound | Activity (Rattus norvegicus [1]) | EC50 [2] | EC50 (Calcitonin receptor [3]) | Activity (Rattus norvegicus [4]) | IC50 [5] | solubility at 18 h [6] | solubility at 18 h [7] | solubility at 18 h [8] | solubility at 18 h [9] | EC50 (Calcitonin receptor [10]) | solubility at 18 h [11] | solubility at 18 h [12] | solubility at 18 h [13] | solubility at 18 h [14] | EC50 [15]
CC(C)C[C@H](NC(=O)[C@H](C)NC(=O)[C@H](C)NC(=O)[C@@H](NC(=O)[C@H](CO)NC(=O)[C@H](CC(C)C)NC(=O)[C@H](CCC(=O)O)NC(=O)[C@H](CO)NC(=O)[C@H](C)NC(=O)[C@H](CCC(=O)O)NC(=O)CCCCCCCCCCC(=O)O)[C@@H](C)O)C(=O)NCC(=O)N[C@@H](CCCNC(=N)N)C(=O)N[C@@H](CC(C)C)C(=O)N[C@@H](CO)C(=O)N[C@@H](C)C(=O)N[C@@H](CCC(=O)O)C(=O)N[C@@H](CC(C)C)C(=O)N[C@@H](Cc1cnc[nH]1)C(=O)N[C@@H](CCC(=O)O)C(=O)N[C@@H](CC(C)C)C(=O)N[C@@H](C)C(=O)N[C@H](C(=O)N[C@@H](CC(C)C)C(=O)N1CCC[C@H]1C(=O)N[C@@H](CCCNC(=N)N)C(=O)N[C@H](C(=O)N[C@@H](CCC(=O)O)C(=O)N[C@H](C(=O)NCC(=O)N1CCC[C@H]1C(=O)N[C@@H](CCC(=O)O)C(=O)N[C@@H](CO)C(=O)N1CCC[C@H]1C(N)=O)[C@@H](C)O)[C@@H](C)O)[C@@H](C)O ({C12 diacid}-EASELSTAALGRLSAELHELATLPRTETGPESP-NH2) | 2% | 0.023 nM | 0.008 nM | -12% | 8.97 nM | 5 µM (≈ 18.2 µg/mL) |  |  |  |  |  |  |  |  | 
CC(C)C[C@H](NC(=O)[C@H](C)NC(=O)[C@H](C)NC(=O)[C@@H](NC(=O)[C@H](CO)NC(=O)[C@H](CC(C)C)NC(=O)[C@H](CCC(=O)O)NC(=O)[C@H](CO)NC(=O)[C@H](C)NC(=O)CC[C@H](NC(=O)CCCCCCCCCCCCCCCCC(=O)O)C(=O)O)[C@@H](C)O)C(=O)NCC(=O)N[C@@H](CCCNC(=N)N)C(=O)N[C@@H](CC(C)C)C(=O)N[C@@H](CO)C(=O)N[C@@H](C)C(=O)N[C@@H](CCC(=O)O)C(=O)N[C@@H](CC(C)C)C(=O)N[C@@H](Cc1c[nH]cn1)C(=O)N[C@@H](CCC(=O)O)C(=O)N[C@@H](CC(C)C)C(=O)N[C@@H](C)C(=O)N[C@H](C(=O)N[C@@H](Cc1ccc(O)cc1)C(=O)N1CCC[C@H]1C(=O)N[C@@H](CCCNC(=N)N)C(=O)N[C@H](C(=O)N[C@@H](CCC(=O)O)C(=O)N[C@H](C(=O)NCC(=O)N[C@@H](CO)C(=O)NCC(=O)N[C@@H](CO)C(=O)N1CCC[C@H]1C(N)=O)[C@@H](C)O)[C@@H](C)O)[C@@H](C)O ({C18 diacid-γGlu}-ASELSTAALGRLSAELHELATYPRTETGSGSP-NH2) | 74% |  |  | 63% |  |  |  |  |  |  |  |  |  |  | 
CC(C)C[C@H](NC(=O)[C@H](C)NC(=O)[C@H](C)NC(=O)[C@@H](NC(=O)[C@H](CO)NC(=O)[C@H](CC(C)C)NC(=O)[C@H](CCC(=O)O)NC(=O)[C@H](CO)NC(=O)[C@H](C)NC(=O)CC[C@H](NC(=O)CCCCCCCCCCCCCCCCCCC(=O)O)C(=O)O)[C@@H](C)O)C(=O)NCC(=O)N[C@@H](Cc1cnc[nH]1)C(=O)N[C@@H](CC(C)C)C(=O)N[C@@H](CO)C(=O)N[C@@H](C)C(=O)N[C@@H](CCC(=O)O)C(=O)N[C@@H](CC(C)C)C(=O)N[C@@H](Cc1cnc[nH]1)C(=O)N[C@@H](CCC(=O)O)C(=O)N[C@@H](CC(C)C)C(=O)N[C@@H](C)C(=O)N[C@H](C(=O)N[C@@H](CC(C)C)C(=O)N1CCC[C@H]1C(=O)N[C@@H](Cc1cnc[nH]1)C(=O)N[C@H](C(=O)N[C@@H](CCC(=O)O)C(=O)N[C@H](C(=O)NCC(=O)N[C@@H](CO)C(=O)NCC(=O)N[C@@H](CO)C(=O)N1CCC[C@H]1C(N)=O)[C@@H](C)O)[C@@H](C)O)[C@@H](C)O ({C20 diacid-γGlu}-ASELSTAALGHLSAELHELATLPHTETGSGSP-NH2) | 7% | 0.026 nM | 0.012 nM | 3% |  | ≥ 200 µM | ≥ 200 µM | ≥ 200 µM | ≥ 200 µM | 0.123 nM | ≥ 200 µM | ≥ 200 µM | ≥ 200 µM | ≥ 200 µM | 
CC(C)C[C@H](NC(=O)[C@H](C)NC(=O)[C@H](C)NC(=O)[C@@H](NC(=O)[C@H](CO)NC(=O)[C@H](CC(C)C)NC(=O)[C@H](CCC(=O)O)NC(=O)[C@H](CO)NC(=O)[C@H](C)NC(=O)[C@H](CCC(=O)O)NC(=O)CC[C@H](NC(=O)CCCCCCCCCCCCCCCCCCC(=O)O)C(=O)O)[C@@H](C)O)C(=O)NCC(=O)N[C@@H](CCCNC(=N)N)C(=O)N[C@@H](CC(C)C)C(=O)N[C@@H](CO)C(=O)N[C@@H](C)C(=O)N[C@@H](CCC(=O)O)C(=O)N[C@@H](CC(C)C)C(=O)N[C@@H](Cc1cnc[nH]1)C(=O)N[C@@H](CCC(=O)O)C(=O)N[C@@H](CC(C)C)C(=O)N[C@@H](C)C(=O)N[C@H](C(=O)N[C@@H](Cc1ccc(O)cc1)C(=O)N1CCC[C@H]1C(=O)N[C@@H](CCCNC(=N)N)C(=O)N[C@H](C(=O)N[C@@H](CCC(=O)O)C(=O)N[C@H](C(=O)NCC(=O)N[C@@H](CO)C(=O)NCC(=O)N[C@@H](CO)C(=O)N1CCC[C@H]1C(N)=O)[C@@H](C)O)[C@@H](C)O)[C@@H](C)O ({C20 diacid-γGlu}-EASELSTAALGRLSAELHELATYPRTETGSGSP-NH2) |  | 0.012 nM | 0.014 nM |  | 1.59 nM | ≥ 200 µM | ≥ 200 µM | ≥ 200 µM | ≥ 200 µM | 0.074 nM | ≥ 200 µM | ≥ 200 µM | ≥ 200 µM | ≥ 200 µM | 0.143 nM
CC(C)C[C@H](NC(=O)CNC(=O)[C@H](CO)NC(=O)[C@H](C)NC(=O)[C@H](CCC(=O)O)NC(=O)CC[C@H](NC(=O)CCCCCCCCCCCCCCCCCCC(=O)O)C(=O)O)C(=O)N[C@@H](CO)C(=O)N[C@H](C(=O)N[C@@H](C)C(=O)N[C@@H](C)C(=O)N[C@@H](CC(C)C)C(=O)NCC(=O)N[C@@H](CCCNC(=N)N)C(=O)N[C@@H](CC(C)C)C(=O)N[C@@H](CO)C(=O)N[C@@H](CCC(N)=O)C(=O)N[C@@H](CCC(=O)O)C(=O)N[C@@H](CC(C)C)C(=O)N[C@@H](Cc1cnc[nH]1)C(=O)N[C@@H](CCC(=O)O)C(=O)N[C@@H](CC(C)C)C(=O)N[C@@H](CCC(N)=O)C(=O)N[C@H](C(=O)N[C@@H](Cc1ccc(O)cc1)C(=O)N1CCC[C@H]1C(=O)N[C@@H](CCCNC(=N)N)C(=O)N[C@H](C(=O)N[C@@H](CCC(=O)O)C(=O)N[C@H](C(=O)NCC(=O)N[C@@H](CO)C(=O)NCC(=O)N[C@H](C(=O)N[C@@H](Cc1ccc(O)cc1)C(N)=O)[C@@H](C)O)[C@@H](C)O)[C@@H](C)O)[C@@H](C)O)[C@@H](C)O ({C20 diacid-γGlu}-EASGLSTAALGRLSQELHELQTYPRTETGSGTY-NH2) | 23% |  | 0.023 nM | 10% |  | ≥ 200 µM | ≥ 200 µM | ≥ 200 µM | ≥ 200 µM | 0.092 nM | ≥ 200 µM |  | ≥ 200 µM | ≥ 200 µM | 
